Columns and labels:
[1] = test system: Z-138 (mantle cell lymphoma); test: Antiproliferative activity, Z-138 cells (Alamar Blue); format: cell-based; conditions: Homo sapiens, Table 10, 72 h, average of several tests
Summary of the method: (§1)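 IC50 values come from a four-parameter logistic fit of Alamar Blue fluorescence (540 nm excitation, 590 nm emission) read 14-16 h after reagent addition. Before that, the lymphoma lines, about 3*10^4 cells per well in 10% FBS RPMI-1640, were incubated with compound for 72 h at 37 °C, keeping final DMSO below 1%.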

[2] = test system: Mino (mantle cell lymphoma); test: Antiproliferative activity, Mino cells (Alamar Blue); format: cell-based; conditions: Homo sapiens, Table 10, 72 h, average of several tests
Summary of the method: as §1

[3] = test system: DOHH2 (follicular lymphoma); test: Antiproliferative activity, DOHH2 cells (Alamar Blue); format: cell-based; conditions: Homo sapiens, DOHH-2, Table 10, 72 h, average of several tests
Protocol: Antiproliferative activity of BTK inhibitors was measured in cell-based bioassay on B-cells cultures: Mino (mantle cell lymphoma, ATCC® CRL-3000™), Z-138 (mantle cell lymphoma, ATCC® CRL-3001™) and DOHH2 (follicular lymphoma, Creative Bioarray CSC-C0219) using cell viability reagent Alamar Blue (Invitrogen, #DAL 1100). Cells were cultured in 10% FB S-supplemented (HyClone, #SH3008803/Gibco, #16140-071) RPMI-1640 (PanEco, #S330p) for at least 1 passage after thawing, washed with PBS and passaged in 96-well culture plates (Corning, #3599) with growth medium with 10% FBS (HyClone, #SH3008803/Gibco, #16140-071) and antibiotic (50 μg/ml of gentamicin (Biolot, #1.3.16))≈3*10^4 cells in 50 μl of medium per well.
The compounds were dissolved in DMSO and diluted with the assay medium to final concentrations ranging from […]. 150 μl of each diluted compound were then added to each well (final concentration of DMSO was less than 1%) and incubated at 37° C. in an incubator under 5% of CO2 for 72 h. After incubation, 20 μl of Alamar Blue reagent (Invitrogen, #DAL1100) were added to each well. The plates were shaked on an orbital shaker (Biosan, Latvia) and then incubated for 14-16 hours at 37° C. in the incubator.
The number of living cells were estimated, measuring the fluorescence signal at the excitation wavelength (REx) of 540 nm and the emission wavelength (λEm) of 590 nm on a microplate reader (Tecan Infinite M200Pro, Switzerland).
For each compound, IC50 was calculated using Magellan 7.2 software (Tecan, Switzerland) approximating experimental points by four-parameter logistic model with the optimization by Levenberg-Marquardt.

[4] = Permeability through the monolayer of Caco-2 cells; format: in vitro ADME; conditions: human; for Papp A→B at 2 h, 10 μM / Papp B→A at 2 h, 10 μM: 2 h at 37° C.; for efflux ratio at 2 h, 10 μM: read-out: efflux (Papp B-A/Papp A-B)
Source text: Assessment of permeability through the monolayer of Caco-2 cells allows to evaluate the ability of the candidate compounds to penetrate through biological membranes by active and passive transport.
Caco-2, the cells of the intestinal epithelium, had been cultured in transwell plate inserts with the filters (with pores of 0.4 μm, BD Falcon with High Density, #353495) for 21 days, and then the integrity of the monolayer were estimated with Lucifer Yellow dye (Sigma-Aldrich, USA) by standard protocol. When setting the A→B transfer, solutions of test substances were added in a buffer with pH 6.5 (Hanks solution, 10 mM HEPES, 15 mM glucose solution) with the concentration of 10 μM into the upper chamber; the lower chamber was filled with a buffer with pH 7.4 (Hanks solution, 10 mM HEPES, 15 mM glucose solution, 1% BSA). When setting B→A transfer, the upper chamber was filled with the buffer with pH 6.5, and solutions of the test substances were added in the buffer with pH 7.4 at the concentration of 10 μM in the lower chamber. Propranolol was used as a control substance (as it has high permeability).
We used gradient elution (1 mL/min flow rate). We determined the areas of peaks corresponding to the compounds. On the basis of peak areas in the calibration standards we determined the concentration of compound in the initial solution and in the samples from the wells of the upper and lower chambers.
Papp, permeability through the cell layer, was calculated using the following formula:
Papp=(C(t)*V)/(C(0)*t*Area), where
Papp is the effective constant of permeability, m/s V is the volume of solution (0.8 ml in A→B test, 0.2 ml in B→A test), ml Area is the surface area of the membrane (0.33 cm^2), cm^2 t is the time of incubation (7200 sec), sec C(0) is the concentration of the initial solution, μM C(t) is the concentration of the solution after 2 hours (the concentration in the sample from the well of the lower chamber in A→B test; the concentration in the sample from the well of the top chamber in B→A test), μM
The value was calculated with the following formula:
efflux=Papp B-A/Papp A-B, where
Papp A-B is the value of the permeability in the direct test (A→B); Papp B-A is the value of the permeability in the backward test in (B→A).

[5] = Stability in human blood plasma; conditions: 10 μM in pooled human blood plasma, incubated 4 hours at 37° C.
Protocol: To assess the blood plasma stability of the drug candidates, we used pooled human blood plasma taken from ten healthy donors. The initial solution (10 Mm in DMSO) was diluted with pooled blood plasma to 10 μM (test solution). The test solution had been incubated for 4 hours in a dry block heater at 37° C. We determined peak areas of the compounds corresponding to the start of the test (before incubating) and the end of the test (after incubating in a dry block heater at 37° C.) by HPLC using Agilent1200 chromatograph (Agilent, USA) with preliminary protein precipitation with acetonitrile. We used gradient elution (1 mL/min flow rate). We determined amount of substance in the sample in % after incubation.
We evaluated the stability of the compounds.

[6] = General cytotoxicity on HepG2 cells (CC50; therapeutic index CC50 HepG2/IC50 Mino); format: cell-based; conditions: human, HepG2 cells (hepatocellular carcinoma); Table 10; 72 hours, Alamar Blue; average of several tests
Summary of the method: (§2)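 Alamar Blue viability after 72 h exposure to compounds (final 200 μM–4 μM) gave CC50; HepG2 plated 2*10^4/well in DMEM 24 h beforehand. Therapeutic index expressed as ratio of HepG2 CC50 to Mino antiproliferative IC50.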

[7] = test system: HepG2 cells (hepatocellular carcinoma); test: as above; format: cell-based; conditions: Table 10; therapeutic index
Summary of the method: as §2

[8] = Chemical stability in artificial gastric fluid (SGF without enzymes); conditions: 10 μM in SGF without enzymes, pH=1.4, 37° C.
[9] = target: T1, recombinant Btk kinase enzyme (Homo sapiens, UniProt Q06187); test: In vitro inhibition of Btk kinase activity (ADP-Glo); format: biochemical; conditions: Table 8; ADP-Glo; read-out: IC50 kinase BTK
T1 construct: purchased SignalChem B10-10H
T1 sequence (Q06187 whole entry): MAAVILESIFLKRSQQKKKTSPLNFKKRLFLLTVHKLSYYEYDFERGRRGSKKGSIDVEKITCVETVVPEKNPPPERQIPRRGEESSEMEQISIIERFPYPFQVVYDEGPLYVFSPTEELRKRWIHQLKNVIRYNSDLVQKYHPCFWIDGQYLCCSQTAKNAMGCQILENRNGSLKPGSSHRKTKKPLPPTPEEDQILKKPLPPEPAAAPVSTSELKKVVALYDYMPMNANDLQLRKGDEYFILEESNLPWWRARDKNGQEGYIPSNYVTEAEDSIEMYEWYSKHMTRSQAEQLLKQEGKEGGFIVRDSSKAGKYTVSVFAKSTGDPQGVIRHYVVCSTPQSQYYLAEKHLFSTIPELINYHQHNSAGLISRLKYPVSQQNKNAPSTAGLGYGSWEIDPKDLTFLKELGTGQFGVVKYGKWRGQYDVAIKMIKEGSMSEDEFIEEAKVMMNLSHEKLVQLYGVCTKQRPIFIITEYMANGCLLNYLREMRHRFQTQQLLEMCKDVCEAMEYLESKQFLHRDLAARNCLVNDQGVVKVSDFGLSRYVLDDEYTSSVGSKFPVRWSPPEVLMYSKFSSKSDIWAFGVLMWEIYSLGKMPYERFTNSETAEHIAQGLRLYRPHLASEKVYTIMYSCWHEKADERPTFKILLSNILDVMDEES
Protocol: To assess Btk kinase activity described herein, SignalChem kinase system was used. Btk kinase activity was determined in the reaction between recombinant Btk kinase enzyme (SignalChem #B10-10H) and Poly (4:1 Glu, Tyr) peptide substrate in the presence of the inhibitor.
Staurosporine (Abcam Biochemicals, ab146588) was used as a reference inhibitor and 0.1% DMSO in the reaction buffer—as a negative control. The solution of 0.5 mg/mL peptide substrate and 50 &M ATP in the same buffer were added; the solution was incubated for 180 minutes at 37° C. To detect the amount of ATP taken up during the kinase reaction, the equivalent amount of ADP (from the ADP Glo Detection Kit (Promega, #V9101)) was used according to the protocol. The reaction mixture was equilibrated to room temperature. 25 µL of ADP-Glo Reagent were added into each well; the plate was incubated for 40 minutes. 50 μL of Kinase Detection Reagent were added; the plate was incubated for 30 minutes. The luminescence was measured with multimode plate reader (Tecan Infinite M200Pro, Switzerland). IC50 values were calculated using Magellan 7.2 software (Tecan, Switzerland) approximating experimental points by four-parameter logistic model with the optimization by Levenberg-Marquardt.

SMILES | IC50 [1] | IC50 [2] | IC50 [3] | Papp A→B at 2 h, 10 μM [4] | Papp B→A at 2 h, 10 μM [4] | efflux ratio at 2 h, 10 μM [4] | Amount of substance in the sample, % (stability in human blood plasma) [5] | Amount of substance in the sample in % (chemical stability) [8] | IC50 [9] | CC50 at 72 h [6] | CC50 (HepG2)/IC50 (Mino) [7]
C=CC(=O)N1CCC[C@@H](n2nc(-c3ccc(Oc4ccncc4)cc3)c3cncc(F)c32)C1 [BCD-BTK-211, (R)-1-(3-(7-fluoro-3-(4-(pyridin-4-yloxy)phenyl)-1H-pyrazolo[4,3-c]pyridin-1-yl)piperidin-1-yl)prop-2-en-1-one] | 17.3 µM | 5.67 µM | 23 µM | 19.2 ×10⁻⁶ cm/s | 3.55 ×10⁻⁶ cm/s | 0.18 | 94.8% | – | – | 45.2 µM | 7.97
C=CC(=O)N1CCC[C@@H](n2nc(-c3ccc(Oc4cccnc4C#N)cc3)c3cncc(C#N)c32)C1 [BCD-BTK-216, (R)-1-(1-acryloylpiperidin-3-yl)-3-(4-(2-cyanopyridin-3-yloxy)phenyl)-1H-pyrazolo[4,3-c]pyridine-7-carbonitrile] | 12.1 µM | 2.14 µM | 9.52 µM | 29.6 ×10⁻⁶ cm/s | 8.72 ×10⁻⁶ cm/s | 0.29 | 80.4% | – | – | 40.1 µM | 18.77
C=CC(=O)N1CCC[C@@H](n2nc(-c3ccc(Oc4ccncc4C#N)cc3)c3cncc(F)c32)C1 [BCD-BTK-217, (R)-4-(4-(1-(1-acryloylpiperidin-3-yl)-7-fluoro-1H-pyrazolo[4,3-c]pyridin-3-yl)phenoxy)nicotinonitrile] | 13.9 µM | 17.4 µM | 16.1 µM | 37.3 ×10⁻⁶ cm/s | 18.9 ×10⁻⁶ cm/s | 0.51 | 90.8% | – | – | 40.1 µM | 2.31
C=CC(=O)N1CCC[C@@H](n2nc(-c3ccc(Oc4cncc(C(N)=O)c4)cc3)c3cncc(Cl)c32)C1 [BCD-BTK-222, 5-(4-{7-chloro-1-[(3R)-1-(prop-2-enoyl)piperidin-3-yl]-1H-pyrazolo[4,3-c]pyridin-3-yl}phenoxy)pyridine-3-carboxamide] | 26.3 µM | 19.4 µM | 26.3 µM | 5.06 ×10⁻⁶ cm/s | 6.97 ×10⁻⁶ cm/s | 1.38 | 100.0% | 100% | – | 50.2 µM | 2.60
C=CC(=O)N1CCC[C@@H](n2nc(-c3ccc(Oc4ccncc4)cc3)c3c(N)ncc(C(N)=O)c32)C1 [BCD-BTK-135, (R)-1-(1-acryloylpiperidin-3-yl)-4-amino-3-(4-(pyridin-4-yloxy)phenyl)-1H-pyrazolo[4,3-c]pyridin-7-carboxamide] | – | – | – | – | – | – | – | – | 6.28 nM | – | –
CC#CC(=O)N1CCC[C@H]1Cn1nc(-c2ccc(Oc3ccncc3)cc2)c2cncc(Cl)c21 [BCD-BTK-259, (S)-1-(2-((7-chloro-3-(4-(pyridin-4-yloxy)phenyl)-1H-pyrazolo[4,3-c]pyridin-1-yl)methyl)pyrrolidin-1-yl)but-2-yn-1-one] | 27.5 µM | 16.3 µM | 17 µM | – | – | – | 90.7% | 100% | – | 47.6 µM | 2.91

Now from value to molecule, other results behind:

IC50 [1] | IC50 [2] | IC50 [3] | Papp A→B at 2 h, 10 μM [4] | Papp B→A at 2 h, 10 μM [4] | efflux ratio at 2 h, 10 μM [4] | Amount of substance in the sample, % (stability in human blood plasma) [5] | Amount of substance in the sample in % (chemical stability) [8] | IC50 [9] | SMILES | CC50 at 72 h [6] | CC50 (HepG2)/IC50 (Mino) [7]
– | – | – | – | – | – | – | 100% | 26.1 nM | C=CC(=O)N1CC[C@H](n2nc(-c3ccc(C(=O)Nc4ccccn4)cc3)c3cncc(Cl)c32)C1 [BCD-BTK-273, (S)-4-(1-(1-acryloylpyrrolidin-3-yl)-7-chloro-1H-pyrazolo[4,3-c]pyridin-3-yl)-N-(pyridin-2-yl)benzamide] | – | –
– | – | – | – | – | – | – | 99.6% | 29.3 nM | C=CC(=O)N1CCC[C@@H](n2nc(-c3ccc(C(=O)Nc4ccccn4)cc3)c3cncc(F)c32)C1 [BCD-BTK-243, (R)-4-(1-(1-acryloylpiperidin-3-yl)-7-fluoro-1H-pyrazolo[4,3-c]pyridin-3-yl)-N-(pyridin-2-yl)benzamide] | – | –
7.24 µM | 5.97 µM | 8.05 µM | 12.1 ×10⁻⁶ cm/s | 5.5 ×10⁻⁶ cm/s | 0.45 | 84.5% | 100% | – | C=CC(=O)N1CCC[C@@H](n2nc(-c3ccc(C(=O)Nc4ncccc4F)cc3)c3cncc(Cl)c32)C1 [BCD-BTK-226, (R)-4-(1-(1-acryloylpiperidin-3-yl)-7-chloro-1H-pyrazolo[4,3-c]pyridin-3-yl)-N-(3-fluoropyridin-2-yl)benzamide] | 19 µM | 3.19
